# Test results published in patent publication US20200316159A1, “SUSTAINED RELEASE COMPOSITIONS OF KAPPA-OPIOID RECEPTOR AGONIST” (JT PHARMACEUTICALS, INC., priority 2016, published 2020).
# Entries after “also recorded” stand apart in the source; their conditions may differ.
# Tests used:
# [1] = system: rewarding properties (compartment preference); experiment: Conditioned place preference; type: in vivo, rat; conditions: 20 mg/kg p.o., alternate treatment over eight days; listed as JT09
# Description: Conditioned Place Preference.
# To test whether JT09 was able to condition appetitive behaviors, we used a conditioned place procedure. On day one, rats were habituated to a three-compartment apparatus for 10 min. One compartment was black with a grid floor and the other white with a rod floor. A smaller center compartment was gray with a solid floor. The amount of time spent in each compartment was recorded. The side in which the rats spent the least amount of time on habituation day was paired with JT09, in that rats receive the compound via oral gavage immediately before compartment placement. On alternating days, rats were treated with saline and confined in the opposite compartment. Rats were confined to each compartment for 25 minutes. Test rats were orally gavaged with saline and given access to the entire apparatus for 10 minutes. The amount of time spent in each compartment was recorded.
# [2] = Multiple dose study (14 days); type: in vivo, rat; conditions: 30 mg/kg oral daily for 14 days
# Excerpt: Tolerance to the analgesic effects of the lead compounds was be assessed using the acetic acid-induced writhing assay (described above). Daily clinical observations for behavioral toxicity (described above) were made during the course of the experiment and body weight and food consumption recorded on study days 3, 5, 7, 9, 11 and 13. On day 15, animals were sacrificed in their home cages by carbon dioxide inhalation from a compressed gas tank. A gross necroscopic analysis was immediately performed following euthanasia.
# [3] = system: abuse liability (lever pressing for intravenous drug delivery); experiment: Self-administration model; type: in vivo, rat
# Excerpt: Self-Administration Model.
# Addiction/dependence is a critical side effect of opioids and must be evaluated with any new member of this family. The most reliable test of abuse liability with the most translational relevance is a contingent drug self-administration model, in which rats are trained to press a lever for intravenous drug delivery. Sixteen standard self-administration chambers (30×20×20 cm, Med Associates) were housed inside sound-attenuating cubicles fitted with a fan for airflow and to mask noise. Each chamber contained two retractable levers, two stimulus lights, a speaker for tone delivery, and a house light to provide general illumination. In addition, each chamber was equipped with a balanced metal arm and spring leash attached to a swivel (Instech). Tygon® tubing extended through the leash and was connected to a 10 ml syringe mounted on an infusion pump located outside the sound-attenuating cubicle. Rats were anesthetized with i.p. injections of ketamine (66 mg/kg; Vedcolnc, St Joseph, Mo., USA), xylazine (1.3 mg/kg; Lloyd Laboratories, Shenandoah, Iowa, USA), and equithesin (0.5 ml/kg); sodium pentobarbital (4 mg/kg), chloral hydrate (17 mg/kg), and 21.3 mg/kg magnesium sulfate heptahydrate dissolved in 44% propylene glycol, 10% ethanol solution). Ketorolac (2.0 mg/kg, i.p. Sigma, St. Louis, Mo., USA) was given just prior to surgery as an analgesic. One end of a silastic catheter was inserted 33 mm into the external right jugular and secured with 4.0 silk sutures. The other end ran subcutaneously and exited from a small incision just below the scapula. This end is attached to an infusion harness (Instech Solomon, Plymouth Meeting, Pa., USA) that provides access to an external port for IV drug delivery. […]
# During self-administration, rats received an IV infusion (0.1 ml) of 10 U/ml heparinized saline before each session. […] Cocaine was chosen for comparison purposes because it is readily self-administered.
# [4] = system: sedation (distance traveled); experiment: Locomotor open field test
# Description: Locomotor Open Field Test.
# Sedation and a loss of muscle coordination are common CNS-mediated side effects of opioids. To assess the sedative effects of JT09, rats were given JT09 (20 mg/kg, p.o.) or morphine (10 mg/kg, i.p.) 20 min before placement in an automated (68 l×21 w×21 h cm) activity chambers for a 30 min test. Morphine was used as a comparison group due to its well-known sedative effects.
# [5] = Maximum tolerated dose determination; type: in vivo, rat; conditions: p.o., six rats per dose level, observed 4 days
# Description: Maximum Tolerated Dose Determination.
# In order to determine the maximum dose of JT09 that can be tolerated, its dose level was increased until the maximum tolerated dose (MTD) was identified or, if MTD dose was not reached, the maximum-administered dose (MAD). […] Six rats were included at each dose level (50, 70, and 90 mg/kg, p.o.). The animals were observed twice daily; body weights and detailed clinical observations for behavioral toxicity (porphyrin staining, changes in activity levels, changes in grooming habits, convulsions, catalepsy, muscular rigidity, and excessive vocalization) were made daily for 4 days after dosing at each level. Doses were chosen based on the compound's ED50 for analgesic potency.
# [6] = system: peripheral pain (acetic acid-induced writhing); experiment: Acetic acid-induced writhing model (Example 1); type: in vivo, rat (male Sprague-Dawley)
# Description: Acetic Acid-Induced Writhing Model.
# This protocol is a well-established model of peripheral pain. Following oral or i.v. administration of compound, rats are rested for 20 min before i.p. injection with 2 ml/kg of 3% acetic acid. Animals are then rested an additional 10 min before being placed in a 10×10 inch chamber. A video of the rats is then recorded for next 20 min. The video is subsequently blindly scored by an investigator who examines each rat every 20 sec for the entire 20 min (60 individual observations). At each observation rats are scored on whether they are writhing or not. Writhing is defined as a constriction of the abdominal area, often with extension of the hind legs. At the end of the experiment the percent of the time the animal was writhing was calculated. The dose-response curves and EC50 values were generated using GraphPad Prism®.
# As an initial biological screen the potential for oral availability of the 18 peptides in our library were evaluated in a well-established model of peripheral pain, the acetic acid-induced writhing assay. Rats were administered the various compounds by oral gavage at a screening dose of 20 mg/kg 20 min before i.p. injection with 2 ml/kg of 3% acetic acid. 10 min later animals were assessed for writhing as indicated in the methods section. […] Thus, several of the Arg modifications can impart CR665 with the ability to cross the gut barrier. Compounds 3, 7, 9, 11 and 17 were selected for further analysis.
compound,measurement,setting,value
CCCC[C@@H](NC(=O)[C@@H](Cc1ccccc1)NC(=O)[C@H](N)Cc1ccccc1)C(=O)N[C@H](CCCCN(C)C)C(=O)NCc1ccncc1 [Compound 9],conditioned place preference for drug-paired compartment over saline,[1],did not develop a preference; also recorded: had no effect on compartment placement
same,tolerance (negative CNS-mediated effects associated with morphine),[2],does not promote
same,"gross necropsy: heart, stomach, intestines, liver, spleen, pancreas, kidneys, adrenal glands, skeletal muscle, bone, reproductive organs, brain",[2]; six rats,grossly normal
same,gross necropsy: lungs,[2]; attributed to CO2 euthanasia hemorrhage,slight grey discoloration
same,lever responding in operant self-administration,"[3]; IV infusion 20 mg/kg/inf, 2-hr sessions, five-day period, n=8",failed to maintain lever responding
same,number of infusions in self-administration,"[3]; JT09 IV, days 2-5 compared to day one",decreased on all 4 days
same,locomotor activity (distance traveled) versus saline,"[4]; 20 mg/kg p.o., 30 min test",statistically indistinguishable
same,locomotor activity relative to morphine,"[4]; JT09 20 mg/kg p.o. versus morphine 10 mg/kg i.p., time bins 1, 2 and 5",higher locomotor activity
same,sedation in locomotor test,"[4]; JT09 20 mg/kg p.o., morphine 10 mg/kg i.p.",showed no sedation
same,"maximum administered dose (MAD) without mortality, loss of more than 10% body weight or overt signs of toxicity",[5],90 mg/kg
same,"EC50, i.v. dose response in writhing assay",[6]; i.v.,0.032 mg/kg
same,"EC50, oral dose-response in acetic acid writhing model",[6]; oral,4.7 mg/kg
